{
  "source": "patent EP0023575A1",
  "about": "“Benzene sulfonyl semicarbazides, their preparation and use, pharmaceutical formulations containing them and their preparation” (HOECHST AKTIENGESELLSCHAFT, priority 1979, dated 1981)",
  "system": "normal ernährte Kaninchen",
  "test": "Blood sugar lowering in normally fed rabbits after oral administration (autoanalyzer)",
  "type": "in vivo",
  "experimental": "Die blutzuckersenkende Wirkung der beschriebenen Benzolsulfonylsemicarbazide kann dadurch festgestellt werden, daß man sie als freie Verbindung oder in Form der Natriumsalze an normal ernährte Kaninchen verfüttert und den Blutzuckerwert nach der bekannten Methode von Hagedorn-Jensen oder mit einem Autoanalyzer über eine längere Zeitdauer ermittelt.\nDie routinemäßige Bestimmung der blutzuckersenkenden Wirkung kann mit Dosierungen von z.B. 10,2 oder 0,4 mg Wirksubstanz pro kg Versuchstier nach bekannten Methoden erfolgen.\n4-(4-<2-(1-Oxo-isoindolin-2-carboxamido)-äthyl> -benzolsulfonyl)-1,1-hexamethylen-semicarbazid wurde in einer Dosierung von 0,4 mg/kg Kaninchen verabreicht und die Blutzuckerwerte wurden mit einem Autoanalyzer über eine längere Zeitdauer ermittelt. Die hierbei gemessene Blutzuckersenkung ist in der nachfolgenden Tabelle in % nach.... Stunden angegeben. In der Tabelle ist ferner die Blutzuckersenkung in % angegeben, die nach p.o. Verabreichung von 0,08 mg/kg Kaninchen beobachtet wurde.",
  "data": [
    {"compound": "O=C(NN1CCCCCC1)NS(=O)(=O)c1ccc(CCNC(=O)N2Cc3ccccc3C2=O)cc1", "note": "[4-(4-<2-(1-Oxo-isoindolin-2-carboxamido)-äthyl> -benzolsulfonyl)-1,1-hexamethylen-semicarbazid]", "values": [
      {"measurement": "Blutzuckersenkung an Kaninchen in %", "setting": "0,4 mg/kg p.o., after 1 hour", "result": 26, "unit": "%"},
      {"measurement": "Blutzuckersenkung an Kaninchen in %", "setting": "0,4 mg/kg p.o., after 3 hours", "result": 31, "unit": "%"},
      {"measurement": "Blutzuckersenkung an Kaninchen in %", "setting": "0,4 mg/kg p.o., after 5 hours", "result": 43, "unit": "%"},
      {"measurement": "Blutzuckersenkung an Kaninchen in %", "setting": "0,4 mg/kg p.o., after 24 hours", "result": 37, "unit": "%"},
      {"measurement": "Blutzuckersenkung an Kaninchen in %", "setting": "0,4 mg/kg p.o., after 48 hours", "result": 0, "unit": "%"},
      {"measurement": "Blutzuckersenkung an Kaninchen in %", "setting": "0,08 mg/kg p.o., after 1 hour", "result": 11, "unit": "%"},
      {"measurement": "Blutzuckersenkung an Kaninchen in %", "setting": "0,08 mg/kg p.o., after 3 hours", "result": 22, "unit": "%"},
      {"measurement": "Blutzuckersenkung an Kaninchen in %", "setting": "0,08 mg/kg p.o., after 5 hours", "result": 33, "unit": "%"}
    ]}
  ]
}
